These results are taken from ChEMBL document CHEMBL1201862, “PubChem BioAssay data set” (2004).

Among the test systems are A549; HCT-15; HOP-62; HT-29; IGROV-1; MDA-MB-435; MOLT-4; Malme-3M; NCI-H226; NCI-H460; OVCAR-8; PC-3; SN12C; SNB-19; TK-10; U-251; UACC-257; UO-31; SF-539; A498.
Experiment in all cases: growth of human tumour cells (NCI), 48 h

Molecules are shown by their SMILES.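 These data come from cells grown in 96-well plates and exposed to compound for 48 hours at five concentrations. Here, GI50 denotes the concentration required for 50% inhibition of growth.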 Activity calls are given as the source filed them. Cut-off read from the data, not from the text of the source: active = GI50 up to about 1.1 µM and inactive = higher. A value given as a limit tells only on which side of the number the result lay.

Take `CC(=O)N1c2cc(/N=N/N(C)C)ccc2NC(=O)CC1C` (stereo unspecified): the GI50 was > 100 µM (inactive) with A549; above 100 µM in the assay on HCT-15; > 100 µM (inactive) in the assay on HOP-62; > 100 µM (inactive) in the assay on HT-29; > 100 µM (inactive) with IGROV-1; > 100 µM (inactive) in the assay with MDA-MB-435. The GI50 with MOLT-4, in the assay with Malme-3M, in the assay on NCI-H226, in the assay on NCI-H460, in the assay on OVCAR-8 and with PC-3 was > 100 µM (inactive) in each case. For the same compound, the GI50 with SN12C, in the assay with SNB-19, with TK-10, with U-251, in the assay with UACC-257 and with UO-31 was > 100 µM (inactive) throughout.

With `O=c1[nH]c(=O)n(Cc2ccccc2CO)cc1Sc1ccccc1`, the GI50 in the assay with A549 is 18.5 µM (inactive); in the assay on HCT-15, 18.8 µM; in the assay on HOP-62, 32.8 µM (inactive); with HT-29, 30.5 µM (inactive); in the assay with IGROV-1, 12.3 µM (inactive); in the assay with MDA-MB-435, 20 µM (inactive). Further, the GI50 is 54.5 µM (inactive) in the assay with MOLT-4; 21.4 µM (inactive) in the assay on Malme-3M; 22.4 µM (inactive) with NCI-H226; 49.7 µM (inactive) in the assay with NCI-H460; 17.7 µM (inactive) with OVCAR-8; 33 µM (inactive) with PC-3. For the same compound, the GI50 was 23.2 µM (inactive) in the assay on SF-539; 34.8 µM (inactive) in the assay with SN12C; 35.7 µM (inactive) in the assay with SNB-19; 30.7 µM (inactive) in the assay on TK-10; 34.4 µM (inactive) in the assay on U-251; 21.6 µM (inactive) with UACC-257. Moreover, in the assay with UO-31, the GI50 is 7.4 µM (inactive).

For the compound `O=C(Nc1cccc(F)c1)c1cc2ccc(O)cc2o/c1=N\c1ccccc1F`, the GI50 in the assay on A498 was 16.1 µM (inactive); in the assay on A549 it was 3.38 µM (inactive); in the assay with HCT-15 it was 2.88 µM; in the assay with HOP-62 it was 8.89 µM (inactive); with HT-29 it was 21.2 µM (inactive); in the assay with IGROV-1, 2.96 µM (inactive). The GI50 in the assay on MDA-MB-435 was 3.89 µM (inactive); with MOLT-4, 2.29 µM (inactive); in the assay with Malme-3M, 4.3 µM (inactive); in the assay on NCI-H460, 3.15 µM (inactive); with OVCAR-8, 2.51 µM (inactive); in the assay on PC-3, 8.85 µM (inactive). Further, the GI50 with SF-539 is 7.43 µM (inactive); in the assay on SN12C it was 5.26 µM (inactive); with SNB-19 it was 5.31 µM (inactive); with U-251, 3.21 µM (inactive); in the assay on UACC-257 it was 4.33 µM (inactive); in the assay with UO-31 it was 4 µM (inactive).

Regarding `CC(C)(C)n1c(=O)[nH]c(=O)n1C(C)(C)C`, the GI50 is > 100 µM (inactive) in the assay with A498; > 100 µM (inactive) in the assay with A549; above 100 µM in the assay with HCT-15; > 100 µM (inactive) in the assay on HOP-62; > 100 µM (inactive) in the assay on HT-29; > 100 µM (inactive) in the assay on IGROV-1. In addition, the GI50 in the assay with MOLT-4, with Malme-3M, in the assay on NCI-H226, in the assay on NCI-H460, with OVCAR-8 and with PC-3 was > 100 µM (inactive) in each case. For the same compound, the GI50 in the assay with SF-539, in the assay on SN12C, in the assay on SNB-19, in the assay with TK-10, in the assay with U-251 and in the assay on UACC-257 was > 100 µM (inactive) each time. For the same compound, in the assay on UO-31, the GI50 was > 100 µM (inactive).

In the case of `CC(=O)NN(c1ccccc1)C1CCN(c2ccccc2)N1C(C)=O` (stereo unspecified), the GI50 with A549 was > 10 µM (inactive); in the assay with HCT-15, 0.881 µM; in the assay with HOP-62, > 10 µM (inactive); in the assay on HT-29, 5.74 µM (inactive); in the assay on IGROV-1 it was > 10 µM (inactive); with MDA-MB-435, 3.18 µM (inactive). The GI50 in the assay with MOLT-4 is 4.74 µM (inactive); with Malme-3M, 3.48 µM (inactive); in the assay with NCI-H226, > 10 µM (inactive); in the assay with NCI-H460, > 10 µM (inactive); in the assay with OVCAR-8 it was > 10 µM (inactive); with PC-3 it was 4 µM (inactive). Further, the GI50 in the assay with SF-539 is 4.85 µM (inactive); in the assay on SN12C, > 10 µM (inactive); in the assay with SNB-19, > 10 µM (inactive); in the assay with TK-10, > 10 µM (inactive); in the assay on UACC-257 it was > 10 µM (inactive); in the assay with UO-31 it was 3.1 µM (inactive).

Take `C/C(=C\CO)CC/C=C(\C)CNc1ccccc1`: the GI50 in the assay with A549 was 50.8 µM (inactive); in the assay on HCT-15 it was 67.8 µM; in the assay with HOP-62, > 100 µM (inactive); with HT-29, 19.4 µM (inactive); in the assay with IGROV-1 it was > 100 µM (inactive); with MDA-MB-435, 36.1 µM (inactive). Moreover, the GI50 was 13 µM (inactive) in the assay with MOLT-4; 13.5 µM (inactive) in the assay with Malme-3M; 36.9 µM (inactive) in the assay with NCI-H226; > 100 µM (inactive) in the assay with NCI-H460; 82.8 µM (inactive) in the assay with OVCAR-8; 28.8 µM (inactive) in the assay with PC-3. The GI50 in the assay with SF-539 was 82.6 µM (inactive); in the assay on SN12C, 57.5 µM (inactive); with SNB-19 it was 62.5 µM (inactive); in the assay on TK-10 it was 20.5 µM (inactive); with U-251, 59.4 µM (inactive); with UACC-257 it was 27.3 µM (inactive). Also, the GI50 in the assay on UO-31 is 38.1 µM (inactive).

On to `COc1cc(/C=C2\C(=O)N(c3cccc(Cl)c3)C(c3ccccc3)S2(=O)=O)cc(OC)c1OC` (stereo unspecified), for which the GI50 in the assay with A498 was > 100 µM (inactive); in the assay with A549, 70.8 µM (inactive); in the assay on HCT-15, 54.3 µM; in the assay with HOP-62, 85.7 µM (inactive); with HT-29, > 100 µM (inactive); with MDA-MB-435 it was 30.5 µM (inactive). The GI50 is 23.9 µM (inactive) in the assay with MOLT-4; 43.4 µM (inactive) in the assay with Malme-3M; 89.7 µM (inactive) in the assay with NCI-H226; > 100 µM (inactive) with NCI-H460; 86.7 µM (inactive) in the assay with OVCAR-8; 43.3 µM (inactive) in the assay on SF-539. Further, the GI50 with SN12C is 72.8 µM (inactive); in the assay with SNB-19, 23.7 µM (inactive); in the assay on TK-10, > 100 µM (inactive); in the assay on U-251, 73.8 µM (inactive); in the assay with UACC-257 it was 76 µM (inactive); with UO-31, 32.3 µM (inactive).

As for `O=C(CSCC(=O)N/N=C\c1cc(Cl)cc(Cl)c1O)N/N=C\c1cc(Cl)cc(Cl)c1O`, the GI50 is 18.7 µM (inactive) in the assay with A549; 2.99 µM with HCT-15; 5.69 µM (inactive) in the assay on HOP-62; 10.5 µM (inactive) in the assay on HT-29; 3.37 µM (inactive) with IGROV-1; 8.04 µM (inactive) with MDA-MB-435. Moreover, the GI50 is 1.63 µM (inactive) in the assay with MOLT-4; 1.87 µM (inactive) in the assay on Malme-3M; 3.62 µM (inactive) in the assay with NCI-H226; 14.9 µM (inactive) with NCI-H460; 2.1 µM (inactive) with OVCAR-8; 4.27 µM (inactive) with PC-3. The GI50 with SF-539 was 2.58 µM (inactive); in the assay with SN12C it was 4.33 µM (inactive); in the assay with SNB-19, 16.7 µM (inactive); in the assay with TK-10 it was 3.63 µM (inactive); in the assay on U-251, 0.515 µM (active); in the assay with UACC-257 it was 5.28 µM (inactive). Besides, the GI50 with UO-31 is 4 µM (inactive).

For `Oc1ccc2ccccc2c1/N=N\c1cccc2ccccc12`, the GI50 with A549 was > 100 µM (inactive); with HCT-15 it was above 100 µM; with HOP-62, > 100 µM (inactive); with HT-29 it was > 100 µM (inactive); with IGROV-1 it was 29.9 µM (inactive); in the assay with MDA-MB-435, > 100 µM (inactive). Besides, the GI50 was 93.1 µM (inactive) in the assay with MOLT-4; > 100 µM (inactive) with NCI-H226; > 100 µM (inactive) in the assay with OVCAR-8; > 100 µM (inactive) in the assay with PC-3; > 100 µM (inactive) in the assay with SN12C; > 100 µM (inactive) in the assay on SNB-19. The GI50 in the assay with TK-10, in the assay on U-251, in the assay on UACC-257 and with UO-31 was > 100 µM (inactive) in each case.

On to `Cc1ccc(NC(=O)C23CC4CC(CC(C4)C2)C3)c(C(=O)NNC(=O)c2ccc(Cl)cc2)c1`, for which the GI50 in the assay with A549 is 20 µM (inactive); with HCT-15, 17 µM; with HOP-62, 18.4 µM (inactive); in the assay on HT-29, 23.7 µM (inactive); in the assay on IGROV-1 it was < 0.01 µM (active); with MDA-MB-435 it was 17.3 µM (inactive). For the same compound, the GI50 with MOLT-4 is 21.5 µM (inactive); with Malme-3M it was 18.3 µM (inactive); with NCI-H226 it was 17 µM (inactive); in the assay with NCI-H460, 22 µM (inactive); in the assay on OVCAR-8 it was 30.2 µM (inactive); in the assay with PC-3, 23.3 µM (inactive). Besides, the GI50 was 18.1 µM (inactive) in the assay on SF-539; 28.4 µM (inactive) in the assay with SN12C; 1.41 µM (inactive) with SNB-19; 17.7 µM (inactive) in the assay with TK-10; 17.2 µM (inactive) with U-251; 2.14 µM (inactive) in the assay with UACC-257. Also, the GI50 with UO-31 was 16.5 µM (inactive).

On to `CC(=O)O[C@H]1C[C@H](O[C@H]2[C@@H](O)C[C@H](O[C@H]3[C@@H](O)C[C@H](O[C@H]4CC[C@@]5(C)[C@H](CC[C@@H]6[C@@H]5C[C@@H](O)[C@]5(C)[C@@H](C7=CC(=O)OC7)CC[C@]65O)C4)O[C@@H]3C)O[C@@H]2C)O[C@H](C)[C@H]1O[C@@H]1O[C@H](CO)[C@@H](O)[C@H](O)[C@H]1O` [LANATOSIDE C], for which the GI50 is 0.0897 µM (active) in the assay with A498; 0.0146 µM (active) in the assay on A549; 0.0409 µM with HCT-15; 0.0264 µM (active) in the assay on HOP-62; 0.048 µM (active) in the assay with HT-29; 0.0435 µM (active) with IGROV-1. The GI50 in the assay on MDA-MB-435 is 0.212 µM (active); in the assay on MOLT-4, 0.018 µM (active); with Malme-3M, 0.0678 µM (active); in the assay on NCI-H226 it was 0.243 µM (active); in the assay on NCI-H460, 0.0138 µM (active); with OVCAR-8 it was 0.0612 µM (active). The GI50 with SF-539 is 0.0336 µM (active); in the assay on SNB-19, 0.168 µM (active); with TK-10, 0.0454 µM (active); in the assay with U-251, 0.0741 µM (active); with UACC-257, 0.238 µM (active); in the assay on UO-31, 0.0559 µM (active).
